Test results from PMC7936488, “An efficient system for intestinal on-site butyrate production using novel microbiome-derived esterases” (Journal of Biological Engineering, 2021).

Assays:
[1] = molecular target: T1, SP_Est (Streptococcus pneumoniae, UniProt A0A0H2UNZ8); test: p-nitrophenol release at […] nm, E. coli tEc cells expressing the gene vs empty vector; format: cell-based; conditions: whole-cell culture aliquot, 5 min
T1 construct: gene estA; gene in pBAD24 under tbe1 promoter, E. coli tEc cells, not purified
T1 sequence (A0A0H2UNZ8 1-259): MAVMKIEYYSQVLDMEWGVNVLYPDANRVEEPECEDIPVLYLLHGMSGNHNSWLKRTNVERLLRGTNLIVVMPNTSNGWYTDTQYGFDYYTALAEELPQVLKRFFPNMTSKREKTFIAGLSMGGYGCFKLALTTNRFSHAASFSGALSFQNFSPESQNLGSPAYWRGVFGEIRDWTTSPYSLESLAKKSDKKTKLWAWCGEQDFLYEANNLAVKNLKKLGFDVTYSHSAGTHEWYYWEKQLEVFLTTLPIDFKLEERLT

[2] = molecular target: T2, LL_Tbe (Lactococcus lactis, UniProt Q9L9X0); test: as above; format: cell-based; conditions: whole-cell culture aliquot, 5 min
T2 construct: gene estA; gene in pBAD24 under tbe1 promoter, E. coli tEc cells, not purified
T2 sequence (Q9L9X0 1-258): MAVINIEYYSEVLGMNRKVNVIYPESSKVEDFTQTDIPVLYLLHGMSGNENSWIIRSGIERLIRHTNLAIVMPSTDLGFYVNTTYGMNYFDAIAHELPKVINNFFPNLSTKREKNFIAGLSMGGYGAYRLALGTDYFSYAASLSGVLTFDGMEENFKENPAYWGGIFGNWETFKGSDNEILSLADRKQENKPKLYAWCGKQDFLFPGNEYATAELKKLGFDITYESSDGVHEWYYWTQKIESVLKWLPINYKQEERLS

CCCC(=O)Oc1ccc([N+](=O)[O-])cc1 [4-nitrophenyl butyrate]
p-nitrophenol release at 400 nm, E. coli tEc cells expressing the gene vs empty [1]: the esterase of S. pneumoniae was the most potent among the four tested enzymes
p-nitrophenol release at 400 nm, E. coli tEc cells expressing the gene vs empty [2]: Tbe1 demonstrated almost identical activity to the L. lactis enzyme
